“And” between values parts separate entries of the source, which are not always exact repeats. Equal entries are not always repeated.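 1) Cells in 96-well plates. 2) Compound, 48 h, 5 concentrations. 3) Linear interpolation between surrounding doses. 4) Unreached endpoint = highest concentration. Abbreviation: GI50, concentration required for 50% inhibition of growth. TGI denotes the concentration required for complete inhibition of growth.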
How the values were obtained:
Experiment in all cases: inhibition of tumour cell growth, NCI panel, 48 h
RXF-631 renal = test system: RXF-631 renal
DLD-1 colon = test system: DLD-1 colon
SNB-78 CNS = test system: SNB-78 CNS
LXFL 529 NSCLC = test system: LXFL 529 NSCLC
NCI/ADR-RES ovarian = test system: NCI/ADR-RES ovarian
T-47D breast = test system: T-47D breast
MDA-N = test system: MDA-N

Row | Compound | TGI (RXF-631 renal) | TGI (DLD-1 colon) | TGI (SNB-78 CNS) | TGI (LXFL 529 NSCLC) | GI50 (NCI/ADR-RES ovarian) | TGI (NCI/ADR-RES ovarian) | GI50 (T-47D breast) | TGI (T-47D breast) | TGI (MDA-N)
1 | O=C(O)c1ccccc1[Se][Se]c1ccccc1C(=O)O | > 100 µM | > 100 µM | – | – | – | – | – | – | –
2 | O=C1C2C(C(=O)N1OS(=O)(=O)c1ccccc1)N(Cc1ccccc1)C(=O)N2Cc1ccccc1 (stereo not drawn) | > 100 µM | > 100 µM | > 100 µM | > 100 µM | – | – | – | – | –
3 | CSc1nc2c(c(=O)[nH]1)N=C1c3ccccc3C(=O)C1C(c1ccccc1)N2 (stereo not drawn) | – | – | – | – | 4.54 µM | 32.1 µM | 4.6 µM | > 100 µM | –
4 | Cc1cc(I)cc(CN(C)CCCCN2CCCCC2)c1O | – | – | – | – | 19.5 µM | 73.2 µM | 16.1 µM | 49.3 µM | –
5 | CC/C=C\CCC/C=C1/C(=O)C=C[C@@H]1C/C=C\CCCC(=O)OC | – | – | – | – | 3.45 µM | 18 µM | 5.16 µM | 19.2 µM | –
6 | Cc1ccc(NC2=C(Cl)C(=O)N(Cc3ccccc3)C2=O)cc1O | – | – | – | – | 30.8 µM | > 100 µM | 44.9 µM | > 100 µM | –
7 | O=C(Nc1ccc(Cl)c(Cl)c1)Nc1ccc(Cl)c(Cl)c1 | – | – | – | – | 3.03 µM and 2.7 µM | 12.9 µM and 14 µM | 2.01 µM and 4.22 µM | 8.12 µM and 49 µM | –
8 | CCCCCN(CCCCC)CC(O)c1cc(C)c2ccc3cc(C(C)C)ccc3c2c1 (stereo not drawn) | – | – | – | – | 2.16 µM | 4.61 µM | 1.95 µM | 4.38 µM | –
9 | CC1=C(C(=O)Nc2ccc(Cl)c(Cl)c2)C(c2cccc(Oc3ccccc3)c2)NC(=S)N1 (stereo not drawn) | – | – | – | – | 10.2 µM | 17.4 µM | 10.9 µM | 21.4 µM | –
10 | CNS(=O)(=O)NNS(=O)(=O)c1ccc2ccccc2c1 | – | > 100 µM | > 100 µM | > 100 µM | – | – | – | – | –
11 | CO[C@H](C(=O)[C@@H](O)[C@@H](C)O)[C@@H]1Cc2cc3cc(O[C@H]4C[C@@H](O[C@H]5C[C@@H](O)[C@H](O)C(C)O5)[C@H](O)C(C)O4)c(C)c(O)c3c(O)c2C(=O)[C@H]1O[C@H]1C[C@@H](O[C@H]2C[C@@H](O[C@H]3C[C@](C)(O)C(=O)C(C)O3)[C@@H](O)C(C)O2)[C@H](O)C(C)O1 (stereo partly drawn) | – | – | – | – | 15.3 µM | > 33.2 µM | 0.0663 µM | – | –
12 | CCOC(=O)CN1C(=O)c2cccc3cc([N+](=O)[O-])cc(c23)C1=O | – | 5.43 µM | 19.3 µM | 3.13 µM | – | – | – | – | –
13 | Cc1ccc(N=Nc2ccc(N(CCC#N)CCC#N)cc2C)c(Br)c1 | 81.3 µM | > 100 µM | > 100 µM | > 100 µM | – | – | – | – | –
14 | O=C(COc1ccc(Br)cc1Br)N1N=C(c2ccc([N+](=O)[O-])o2)CC1(O)c1ccccc1 (stereo not drawn) | – | 30.2 µM | > 100 µM | 21.6 µM | – | – | – | – | –
15 | CC(=O)NNc1nc(C)c(C(=O)NNC(=O)C(=O)Nc2c(Cl)cc([N+](=O)[O-])cc2Cl)s1 | – | – | > 100 µM | > 100 µM | – | – | – | – | –
16 | CC(=O)NNc1nc(C)c(C(=O)NNC(=O)C(=O)Nc2ccc(Cl)cc2)s1 | – | – | > 100 µM | > 100 µM | – | – | – | – | –
17 | C/C(CC(=O)CCC(=O)Nc1cccc(C(F)(F)F)c1)=N\NC(=O)NN | > 100 µM | > 100 µM | > 100 µM | > 100 µM | – | – | – | – | –
18 | COc1cc(CNc2cnc3cc(N)cc(N)c3n2)cc(OC)c1 | – | – | – | – | 34.3 µM | > 100 µM | – | – | –

Row | Compound | TGI (RXF-631 renal) | TGI (DLD-1 colon) | TGI (SNB-78 CNS) | TGI (LXFL 529 NSCLC) | GI50 (NCI/ADR-RES ovarian) | TGI (NCI/ADR-RES ovarian) | GI50 (T-47D breast) | TGI (T-47D breast) | TGI (MDA-N)
19 | Cc1ccc(C(=O)/C(=C/c2ccc([N+](=O)[O-])cc2)SCc2ccc(Cl)cc2)cc1 | – | – | – | – | 2.06 µM | 6.81 µM | 2.9 µM | 36.7 µM | –
20 | Cc1coc2c1CC1(C)C(CCC(O)C1C)C2 (stereo not drawn) | – | – | – | – | – | > 100 µM | – | > 100 µM | > 100 µM
21 | CN(C)CC[N+]1=Nc2cccc3cccc(c23)N1 | > 100 µM | > 59.8 µM | > 100 µM | > 100 µM | – | – | – | – | –
22 | CCOC(=O)[C@]1(OC(C)=O)C[C@H](OC(C)=O)[C@@H](C(F)COP(=O)(OCc2ccccc2)OCc2ccccc2)O1 (stereo partly drawn) | – | – | – | – | – | > 100 µM | 34.2 µM and > 100 µM | 93.1 µM and > 100 µM | > 100 µM
23 | CC1(c2ccc(F)cc2)C(C#N)C(=O)NC(=O)C1C#N (stereo not drawn) | > 100 µM | > 100 µM | – | > 100 µM | – | – | – | – | –
24 | COC(=O)CC1CCN(C#N)CC1CC[N+](=O)[O-] (stereo not drawn) | > 100 µM | > 100 µM | > 100 µM | > 100 µM | – | – | – | – | –
25 | OCc1ccc(N2CCC2c2ccc(F)cc2)cc1Cl (stereo not drawn) | – | – | – | – | 23.7 µM | > 88.8 µM | 0.209 µM | 1.72 µM | –
26 | COc1ccccc1C12OC(=O)C1(C)Oc1ccccc1C2=O (stereo not drawn) | > 100 µM | > 100 µM | > 100 µM | > 100 µM | – | – | – | – | –
27 | NC(=O)c1sc(-n2cnc3ccccc32)cc1OCc1ccccc1Br | – | – | – | – | 0.869 µM | > 25 µM | 23.1 µM | > 25 µM | –
28 | O=C(O)CSc1ccc([N+](=O)[O-])cc1[N+](=O)[O-] | – | – | – | – | – | > 100 µM | – | > 100 µM | > 100 µM
29 | C#Cc1ccc(-n2c(/C=C/c3ccc(C(F)(F)F)cc3)nc3ncccc3c2=O)cc1 | – | – | – | – | 2.5 µM | 7 µM | 2.02 µM | 4.97 µM | –
30 | O=C(Nc1ccccc1OC(F)(F)F)Nc1n[nH]c2ccccc12 | – | – | – | – | 44.2 µM | > 100 µM | 37.5 µM | > 100 µM | –
31 | COc1cc(Cc2cnc(/N=C3\C(=O)N(CN4CCN(c5c(F)cc6c(=O)c(C(=O)O)cn(C7CC7)c6c5OC)CC4C)c4ccc(F)cc43)nc2N)cc(OC)c1OC (stereo not drawn) | – | – | – | – | 11.8 µM | 29.4 µM | 2.85 µM | 24.3 µM | –
32 | O=C(N/C(=C\c1ccc(/C=C(\NC(=O)c2ccccc2)c2nc3cc([N+](=O)[O-])ccc3[nH]2)cc1)c1nc2cc([N+](=O)[O-])ccc2[nH]1)c1ccccc1 | > 100 µM | > 100 µM | > 100 µM | > 100 µM | – | – | – | – | –
33 | Cn1cnc([N+](=O)[O-])c1Sc1nnc(-c2cccnc2)n1C | – | 40.5 µM | 63.2 µM | 24.4 µM | – | > 100 µM | – | 32 µM | 43.3 µM
34 | Clc1ccc2c(NCCCCNc3nc(N4CCCCC4)nc4ccccc34)ccnc2c1 | – | – | – | – | 2.68 µM | 9.18 µM | 2.12 µM | 4.3 µM | –
35 | CCCCC(=O)OCC(=O)[C@]1(O)Cc2c(O)c3c(c(O)c2[C@@H](OC2CC(NC(=O)C(F)(F)F)C(O)C(C)O2)C1)C(=O)c1c(OC)cccc1C3=O (stereo partly drawn) | 6.44 µM | 13.2 µM | – | > 32.7 µM | – | – | – | 7.55 µM | 5.02 µM

Reference: PubChem BioAssay (NCI)
